In patent publication US20010014742A1, “Water-soluble prodrugs of azole compounds” (priority 1999, published 2001):
Values after ≈ are worked out from the molar mass of the structure shown.

Assay: aqueous solubility
Type: physicochemical
Conditions: water at pH 6.8

- solubility: 0.6 µg/mL (≈ 1.37 µM)
Compound: C[C@@H](c1nc(-c2ccc(C#N)cc2)cs1)C(O)(Cn1cncn1)c1ccc(F)cc1F (stereo partly drawn) [the above triazole compound, (2R,3R)-3-[4-(4-cyanophenyl)thiazol-2-yl]-2-(2,4-difluorophenyl)-1-(1H,1,2,4-triazol-1-yl)-butan-2-ol]
